Like-named read-outs stand apart in the source and are kept apart here.
Tests used:
[1] = biological target: T1, human CB1R (Homo sapiens, UniProt P21554); assay type: cell-based
T1 construct: expressed in transfected cells; host or cells: HEK293T (HEK293T-CB1), transiently co-transfected with the CRE-luc reporter

[2] = biological target: T1, human CB1R; assay type: cell-based; details: for Effect of the cannabinoid on the DLPA effect (DLPA alone vs combos): FIG. 5A-5C
[3] = test system: neuropathic and chronic pain; details: 1,000 mg given ×1 (once a day); cited from earlier work
[4] = test system: inflammation; details: co-administered with THC; cited from earlier work
[5] = cited from earlier work
[6] = test system: glutamatergic synapses in hippocampus and cortex; details: cited from earlier work
[7] = biological target: α2δ Ca2+ calcium channels; details: antagonist; cited from earlier work
[8] = DLPA 1 mM, alone or + 10 μM THCA or THC
[9] = DLPA 2.5 mM, alone or + 10 μM THCA or THC
[10] = DLPA 5 mM, alone or + 10 μM THCA or THC
[11] = DLPA 7.5 mM, alone or + 10 μM THCA or THC
[12] = DLPA 10 mM, alone or + 10 μM THCA or THC
[13] = DLPA 1 mM, alone or + 10 μM THCA, 1 μM CBD or 10 μM THC
[14] = DLPA 2.5 mM, alone or + 10 μM THCA, 1 μM CBD or 10 μM THC
[15] = DLPA 5 mM, alone or + 10 μM THCA, 1 μM CBD or 10 μM THC
[16] = DLPA 7.5 mM, alone or + 10 μM THCA, 1 μM CBD or 10 μM THC
[17] = DLPA 10 mM, alone or + 10 μM THCA, 1 μM CBD or 10 μM THC
[18] = THCA or THC without DLPA, 10 μM

T1 sequence (P21554 whole entry): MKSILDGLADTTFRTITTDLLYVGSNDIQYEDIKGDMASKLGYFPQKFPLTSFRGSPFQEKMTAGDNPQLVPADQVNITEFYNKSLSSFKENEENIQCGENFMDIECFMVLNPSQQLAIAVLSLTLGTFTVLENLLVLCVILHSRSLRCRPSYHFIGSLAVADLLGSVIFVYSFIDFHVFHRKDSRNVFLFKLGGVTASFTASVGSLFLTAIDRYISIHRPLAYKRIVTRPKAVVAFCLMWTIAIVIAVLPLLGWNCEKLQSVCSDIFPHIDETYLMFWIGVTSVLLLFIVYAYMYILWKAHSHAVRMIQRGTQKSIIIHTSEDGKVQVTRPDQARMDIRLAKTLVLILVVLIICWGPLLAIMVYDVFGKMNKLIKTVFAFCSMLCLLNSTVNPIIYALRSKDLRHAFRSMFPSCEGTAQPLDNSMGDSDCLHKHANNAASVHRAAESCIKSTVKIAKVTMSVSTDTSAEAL

## NC(Cc1ccccc1)C(=O)O (racemic) [DLPA, DL-Phenylalanine]
[1]; [8]
  Conclusions: Is CB1R agonist effect observed?: Negative (Only treatments that the mean of three consecutive independent experiments shows a positive result: CB1R activity ≥2.5-fold increase or ≥4-fold increase are considered CB1R agonists or CB1R positive allosteric modulators)
  Experiment 1 Fold change: 0.9 fold change
  Experiment 2 Fold change: 0.9 fold change
  Experiment 3 Fold change: 1.0 fold change
[1]; [9]
  Conclusions: Is CB1R agonist effect observed?: Negative (Only treatments that the mean of three consecutive independent experiments shows a positive result: CB1R activity ≥2.5-fold increase or ≥4-fold increase are considered CB1R agonists or CB1R positive allosteric modulators)
  Experiment 1 Fold change: 1.0 fold change
  Experiment 2 Fold change: 0.9 fold change
  Experiment 3 Fold change: 0.9 fold change
[1]; [10]
  Conclusions: Is CB1R agonist effect observed?: Negative (Only treatments that the mean of three consecutive independent experiments shows a positive result: CB1R activity ≥2.5-fold increase or ≥4-fold increase are considered CB1R agonists or CB1R positive allosteric modulators)
  Experiment 1 Fold change: 0.8 fold change
  Experiment 2 Fold change: 0.8 fold change
  Experiment 3 Fold change: 0.7 fold change
[1]; [11]
  Conclusions: Is CB1R agonist effect observed?: Negative (Only treatments that the mean of three consecutive independent experiments shows a positive result: CB1R activity ≥2.5-fold increase or ≥4-fold increase are considered CB1R agonists or CB1R positive allosteric modulators)
  Experiment 1 Fold change: 1.0 fold change
  Experiment 2 Fold change: 0.8 fold change
  Experiment 3 Fold change: 1.0 fold change
[1]; [12]
  Conclusions: Is CB1R agonist effect observed?: Negative (Only treatments that the mean of three consecutive independent experiments shows a positive result: CB1R activity ≥2.5-fold increase or ≥4-fold increase are considered CB1R agonists or CB1R positive allosteric modulators)
  Experiment 1 Fold change: 1.1 fold change
  Experiment 2 Fold change: 1.0 fold change
  Experiment 3 Fold change: 1.0 fold change
[1]; all tested concentrations, DLPA 1-10 mM, THC or THCA 10 μM
  CB1R agonistic activity (in words): did not show CB1R agonistic activity
[2]; [13]
  Conclusions: Is CB1R positive allosteric agonism effect observed?: Negative (Only treatments that the mean of three consecutive independent experiments shows a positive result (CB1R activity ≥4-fold change) are considered positive CB1R allosteric agonists)
  Experiment 1 Fold change: 2.7 fold change
  Experiment 2 Fold change: 2.5 fold change
  Experiment 3 Fold change: 3.0 fold change
[2]; [14]
  Conclusions: Is CB1R positive allosteric agonism effect observed?: Negative (Only treatments that the mean of three consecutive independent experiments shows a positive result (CB1R activity ≥4-fold change) are considered positive CB1R allosteric agonists)
  Experiment 1 Fold change: 2.4 fold change
  Experiment 2 Fold change: 2.1 fold change
  Experiment 3 Fold change: 4.0 fold change
[2]; [15]
  Conclusions: Is CB1R positive allosteric agonism effect observed?: Negative (Only treatments that the mean of three consecutive independent experiments shows a positive result (CB1R activity ≥4-fold change) are considered positive CB1R allosteric agonists)
  Experiment 1 Fold change: 3.1 fold change
  Experiment 2 Fold change: 2.7 fold change
  Experiment 3 Fold change: 2.9 fold change
[2]; [16]
  Conclusions: Is CB1R positive allosteric agonism effect observed?: Negative (Only treatments that the mean of three consecutive independent experiments shows a positive result (CB1R activity ≥4-fold change) are considered positive CB1R allosteric agonists)
  Experiment 1 Fold change: 3.1 fold change
  Experiment 2 Fold change: 3.1 fold change
  Experiment 3 Fold change: 5.0 fold change
[2]; [17]
  Conclusions: Is CB1R positive allosteric agonism effect observed?: Allosterism (An increase of the fold change ≥4-fold indicates CB1R positive allosteric agonistic activity)
  Experiment 1 Fold change: 4.0 fold change
  Experiment 2 Fold change: 3.5 fold change
  Experiment 3 Fold change: 6.5 fold change
[2]; on CP-55940 activity, dose-response curve, FIG. 4
  CB1R positive allosteric effect (in words): clear CB1R positive allosteric effect
[3]
  Relief of neuropathic and chronic pain: beneficial

## CCCCCc1cc(O)c2c(c1)OC(C)(CCC=C(C)C)C=C2 (stereo not drawn) [CBC, cannabichromene]
[4]
  Anti-inflammatory effect: enhanced anti-inflammatory effect

## C=C(C)[C@@H]1CCC(C)=C[C@H]1c1c(O)cc(CCCCC)cc1O [CBD, cannabidiol, reference compound]
[2]; CBD without DLPA, 1 μM
  Conclusions: Is CB1R positive allosteric agonism effect observed?: Negative (Only treatments that the mean of three consecutive independent experiments shows a positive result (CB1R activity ≥4-fold change) are considered positive CB1R allosteric agonists)
  Experiment 1 Fold change: 1.4 fold change
  Experiment 2 Fold change: 1.5 fold change
  Experiment 3 Fold change: 1.4 fold change
[2]
  Effect of the cannabinoid on the DLPA effect (DLPA alone vs combos): blocked not only the DLPA CB1R allosteric activity, but also the agonistic activity of CP-55940

## C=C(C)[C@@H]1CCC(C)=C[C@H]1c1c(O)cc(CCCCC)c(C(=O)O)c1O [CBDA, cannabidiolic acid]
[5]
  Decarboxylation by gastric acids: do not decarboxylate

## CCCCCCC(C)(C)c1ccc([C@@H]2C[C@H](O)CC[C@H]2CCCO)c(O)c1 [CP, reference compound]
[1]
  Experiment 1 Fold change: 2.5 fold change
  Experiment 2 Fold change: 2.5 fold change
  Experiment 3 Fold change: 2.5 fold change
[2]
  Experiment 1 Fold change: 2.5 fold change
  Experiment 2 Fold change: 2.5 fold change
  Experiment 3 Fold change: 2.5 fold change

## N[C@H](Cc1ccccc1)C(=O)O [D-phenylalanine]
[6]; compared with L-Phenylalanine
  Effect on neurotransmitter release (in words): significantly smaller effect

## N[C@@H](Cc1ccccc1)C(=O)O [L-Phenylalanine, L-phenylalanine]
[7]
  Ki: 0.98 µM
[6]; hippocampus and cortex
  IC50: 980 µM

## CCCCCc1cc2c(c(O)c1C(=O)O)[C@@H]1C=C(C)CC[C@H]1C(C)(C)O2 [THCA, tetrahydrocannabinolic acid]
[1]; THCA or THC alone, 10 μM
  Conclusions: Is CB1R agonist effect observed?: Negative (Only treatments that the mean of three consecutive independent experiments shows a positive result: CB1R activity ≥2.5-fold increase or ≥4-fold increase are considered CB1R agonists or CB1R positive allosteric modulators)
  Experiment 1 Fold change: 0.8 fold change
  Experiment 2 Fold change: 1.0 fold change
  Experiment 3 Fold change: 1.0 fold change
[2]
  Effect of the cannabinoid on the DLPA effect (DLPA alone vs combos): did not modify the DLPA effect
[2]; [18]
  Conclusions: Is CB1R positive allosteric agonism effect observed?: Negative (Only treatments that the mean of three consecutive independent experiments shows a positive result (CB1R activity ≥4-fold change) are considered positive CB1R allosteric agonists)
  Experiment 1 Fold change: 2.2 fold change
  Experiment 2 Fold change: 3.1 fold change
  Experiment 3 Fold change: 2.8 fold change
[5]
  Decarboxylation by gastric acids: do not decarboxylate

Reference: patent publication US20210338629A1, “ORAL FORMULATIONS OF PHENYLALANINE AND CANNABINOIDS” (priority 2018, published 2021)
